Patent publication US7452870B2, “Drug-eluting stents coated with P2Y12 receptor antagonist compound” (Inspire Pharmaceuticals, Inc., priority 2000, dated 2008)
Structures can show the parent of a compound that is named as a salt.

How the values were obtained:
[1] = tested on: platelets (ADP-induced aggregation); assay: Inhibition of ADP-induced platelet aggregation at 100 μM (FIG. 1); format: cell-based, human; conditions: 100 μM compound
Procedure: (§1) Blood was collected from healthy volunteers into syringes containing ⅙ final blood volume of anti-coagulant ACD (65 mM citric acid, 85 mM sodium citrate, 110 mM dextrose) for washed platelet (WP) preparation or into a syringe containing a final concentration of 10 units/mL heparin or 300 μM PPACK for whole blood (WB) assays. The blood collected for whole blood assays was maintained at room temperature and immediately tested as described below. The blood collected for WP was centrifuged at 180 g for 15 minutes and the supernatant (platelet rich plasma) was removed. The platelet rich plasma was centrifuged and the platelets were pelleted and resuspended in a buffer consisting of (mM): NaCl (137), KCl (2.7), CaCl2 (2) MgCl2 (1), NaH2PO4 (3), Glucose (5), HEPES (10), pH 7.4, 0.2% BSA. These centrifugations and washes were repeated twice following by resuspension in the media described above containing 0.25 U apyrase/mL. Platelet aggregation was measured using the optical mode of a CHRONOLOG® aggregometer (Havertown, Pa.). Five hundred μl of platelet suspension containing 1 mg/mL Fibrinogen were warmed to 37° C. and stirred at 1000 rpm. Indicated concentrations of ADP were added to the sample and aggregation was monitored for 8 minutes. The effect of the compounds described in this invention were studied following the same protocol with the exception that the inhibitor was incubated for 2-5 minutes prior to the addition of a maximally effective concentration of ADP. For whole blood aggregation, blood was diluted 1:1 with saline and then aggregation was performed in the same manner as described above using the impedance mode of the aggregometer. The potency of agonists and inhibitors of platelet aggregation was calculated from both, the rate of aggregation and the maximal extent of aggregation obtained for each determination by fitting the data to a four-parameter logistic equation using the […]® software package (GraphPad Corp. San Diego, Calif.).
The ability of P2Y12 antagonists to inhibit platelet aggregation is presented in this application as the percent inhibition of the aggregation induced by a maximally effective concentration of ADP. When a broad range of concentrations of P2Y12 antagonist was tested (usually from 1 nM to 100 μM), an IC50 value was also obtained.
Different compounds were tested for their inhibition of ADP-induced aggregation and their IC50 according to the protocols in Example 19; the results are shown in FIG. 1. The bar graphs in the figure illustrate the effect of 100 μM concentration of the compound on ADP-induced platelet aggregation, and the data are expressed as % inhibition of the ADP response.
Where hydrogens are understood to be present, they have been omitted for the sake of simplicity. […]

P2Y2 = P2Y2 (Homo sapiens, UniProt P41231); assay: Calcium mobilization assay, P2Y2; format: cell-based; set-up: key: no response (NR); conditions: activation of P2Y2 receptor;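 also: test compound added first then a maximal dose of the cognate agonist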
P2Y6 = P2Y6 (Homo sapiens, UniProt Q15077); assay: Calcium mobilization assay, P2Y6; format: cell-based; set-up: key: no response (NR); conditions: activation of P2Y6 receptor;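 also: test compound added first then a maximal dose of the cognate agonist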
[2] = Plasma levels of test compound during and after IV infusion in dogs (LC/MS/MS); format: in vivo; conditions: both sexes, beagle, dog, after the end of infusion, one-compartment model analysis, FIG. 5B
Procedure: (§2) Two weeks prior to the study, beagle dogs were implanted with jugular catheters and vascular access ports. Groups of four dogs (two of each sex) were fitted with jackets and connected to ambulatory infusion pumps for drug administration.
(§3) The day of the study, dogs were treated with a continuous infusion of different concentrations of test compound (usually between 0.1 and 1.5 mg/kg/h) for 90 minutes at a rate of 3 mL/kg/h. Approximately 30 minutes and 15 minutes prior to the start of infusion (predose samples), at different times during each infusion period (usually 10, 30, 60, and 90 minutes), and after the termination of the infusion (usually 5, 10, 20, 30, 40, 60, 120, and 240 minutes and 18, 20, 22, and 24 hours), blood was withdrawn from a cephalic vein catheter for the assessment of ex-vivo whole blood platelet aggregation assays and/or for bioanalytical determination of the plasma levels of the test compound. Platelet aggregation was estimated using the impedance mode of a CHRONOLOG® aggregometer as described in Example 24, and the plasma levels of the test compound were analyzed on an API 4000 LC/MS/MS system coupled with an Agilent 1100 series liquid chromatograph.
The pharmacological effect of the administration of the test compound correlated closely with the plasma levels of the compound. […]

P2Y1 = P2Y1 (Homo sapiens, UniProt P47900); assay: Calcium mobilization assay, P2Y1; format: cell-based; set-up: key: no response (NR); conditions: activation of P2Y1 receptor;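 also: test compound added first then a maximal dose of the cognate agonist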
P2Y4 = P2Y4 (Homo sapiens, UniProt P51582); assay: Calcium mobilization assay, P2Y4; format: cell-based; set-up: key: no response (NR); conditions: activation of P2Y4 receptor;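 also: test compound added first then a maximal dose of the cognate agonist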
[3] = tested on: washed platelet (ADP-induced aggregation; P2Y12 receptor); assay: ADP-induced platelet aggregation, washed platelet preparation; format: cell-based; conditions: Homo sapiens, inhibition of ADP-induced aggregation, washed platelets, average of at least two separate experiments
Procedure: as §1, with “The blood collected for WP was centrifuged at 180 g for 15 minutes and the supernatant (platelet rich plasma) was removed. The platelet rich plasma was centrifuged and the platelets were pelleted and resuspended in a buffer consisting of (mM): NaCl (137), KCl (2.7), CaCl2 (2) MgCl2 (1), NaH2PO4 (3), Glucose (5), HEPES (10), pH 7.4, 0.2% BSA.” left out, “The effect of the compounds described in this invention were studied following the same protocol with the exception that the inhibitor was incubated for 2-5 minutes prior to the addition of a maximally effective concentration of ADP.” left out
The ability of P2Y12 antagonists to inhibit platelet aggregation is presented in this application as the percent inhibition of the aggregation induced by a maximally effective concentration of ADP.
Data presented are from the average of at least two separate experiments.

[4] = tested on: whole blood platelet aggregation; assay: Ex-vivo whole blood platelet aggregation during and after continuous IV infusion in dogs; set-up: species or system beagle dogs
Procedure: as §2, §3

[5] = tested on: systemic intravascular thromboembolism; assay: Thromboembolism-induced mortality (collagen and epinephrine) in mice; format: in vivo; conditions: 25 mg/kg single IV bolus five minutes before 0.3 mg/kg collagen and 60 μg/kg epinephrine
Procedure: Ten anesthetized mice were treated with vehicle (control) or with a single bolus intravenous administration of test compound (usually between 10 and 25 mg/kg). Five minutes after treatment, the animals were injected with a mixture of 0.3 mg/kg collagen and 60 μg/kg epinephrine. The survival time after the administration of collagen and epinephrine in animals pretreated with saline or 25 mg/kg of the test compound 2′3′-(trans)cinnamyl acetal-6-N-ethylurea AMP (compound 41), are shown using the Kaplan-Meier plot in FIG. 3. Ninety percent of the vehicle-pretreated animals died within 6 minutes after the IV injection of collagen and epinephrine.

[6] = tested on: platelet aggregation (platelet rich plasma); assay: Ex-vivo ADP-induced platelet aggregation after intravenous administration in mice
Procedure: In order to evaluate the effects of inhibition of platelet aggregation in-vivo by the compounds described in this invention, experimental protocols similar to those described by Leon et al. (Circulation 103:718-723, 2001) were performed.
Anesthetized mice were injected intravenously with either saline or with different doses of trans-2′,3′-cinnamyl acetal-6N-ethylurea adenosine 5′-monophosphate, bis sodium salt (Compound 41), usually between 1 and 100 μg/kg. Five minutes after the administration of the compound, 700 μL of blood were obtained from each animal. The blood of two animals was combined and immediately processed to obtain platelet rich plasma for the assessment of platelet aggregation stimulated by 1 and 5 μM ADP. Platelet aggregation was measured using optical aggregometry as described in Example 21.
A key characteristic of the compounds described in this invention is the reversible nature of the inhibition of platelet aggregation. The model system described in Example 28 was also used to study the kinetics of in-vivo inhibition of platelet aggregation with selected compounds. Briefly, a maximally effective concentration of test compound was administered intravenously, and blood samples were obtained before and at different times (usually 0, 1, 5, 15 and 30 minutes) after the administration of trans-2′,3′-cinnamyl acetal-6N-ethylurea adenosine 5′-monophosphate, bis sodium salt (Compound 41). Blood samples were processed immediately and aggregation induced by 1 μM and 5 μM ADP was estimated as described in Example 31.

Sequence of P2Y2 (P41231 whole entry, species assumed): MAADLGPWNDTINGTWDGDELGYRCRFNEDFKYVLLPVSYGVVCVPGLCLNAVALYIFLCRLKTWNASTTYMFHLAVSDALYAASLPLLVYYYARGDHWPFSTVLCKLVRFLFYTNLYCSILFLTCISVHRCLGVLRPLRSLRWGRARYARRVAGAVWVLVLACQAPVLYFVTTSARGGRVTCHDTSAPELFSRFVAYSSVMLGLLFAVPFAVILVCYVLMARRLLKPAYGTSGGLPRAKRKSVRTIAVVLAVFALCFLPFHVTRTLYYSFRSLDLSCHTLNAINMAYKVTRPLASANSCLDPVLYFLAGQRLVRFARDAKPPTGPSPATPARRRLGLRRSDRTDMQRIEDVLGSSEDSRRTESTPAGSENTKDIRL
Sequence of P2Y1 (P47900 whole entry): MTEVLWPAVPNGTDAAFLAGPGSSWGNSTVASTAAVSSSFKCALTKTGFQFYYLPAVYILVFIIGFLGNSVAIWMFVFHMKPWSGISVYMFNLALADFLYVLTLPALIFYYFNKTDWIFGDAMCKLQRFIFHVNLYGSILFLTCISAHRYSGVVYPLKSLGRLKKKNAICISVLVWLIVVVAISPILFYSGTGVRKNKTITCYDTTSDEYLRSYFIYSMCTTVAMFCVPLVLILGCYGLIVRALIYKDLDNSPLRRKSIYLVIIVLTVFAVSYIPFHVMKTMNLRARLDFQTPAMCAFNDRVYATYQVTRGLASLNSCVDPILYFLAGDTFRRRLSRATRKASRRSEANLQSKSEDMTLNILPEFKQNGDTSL
Sequence of P2Y4 (P51582 whole entry, species assumed): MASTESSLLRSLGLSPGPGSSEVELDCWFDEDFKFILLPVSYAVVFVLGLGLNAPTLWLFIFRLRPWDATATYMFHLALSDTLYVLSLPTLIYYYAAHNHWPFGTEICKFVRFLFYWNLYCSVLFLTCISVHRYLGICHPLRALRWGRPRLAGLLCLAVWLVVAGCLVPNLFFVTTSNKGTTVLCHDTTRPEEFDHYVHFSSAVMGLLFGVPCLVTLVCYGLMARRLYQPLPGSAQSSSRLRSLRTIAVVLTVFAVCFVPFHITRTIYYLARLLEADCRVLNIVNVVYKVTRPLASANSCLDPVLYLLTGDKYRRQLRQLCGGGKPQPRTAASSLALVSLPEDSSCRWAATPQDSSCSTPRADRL
Sequence of P2Y6 (Q15077 whole entry, species assumed, the tested form may be a part): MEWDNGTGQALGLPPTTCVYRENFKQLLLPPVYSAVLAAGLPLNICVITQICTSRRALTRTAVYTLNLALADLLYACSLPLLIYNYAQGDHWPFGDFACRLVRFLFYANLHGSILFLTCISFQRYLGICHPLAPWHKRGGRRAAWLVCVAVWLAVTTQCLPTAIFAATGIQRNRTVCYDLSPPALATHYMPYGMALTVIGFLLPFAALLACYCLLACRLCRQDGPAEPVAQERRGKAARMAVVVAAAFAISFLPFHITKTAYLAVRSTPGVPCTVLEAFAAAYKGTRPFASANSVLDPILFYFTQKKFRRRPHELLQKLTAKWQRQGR

O=c1ccn([C@@H]2O[C@H](COP(=O)(O)OP(=O)(O)OP(=O)(O)OP(=O)(O)OC[C@H]3O[C@@H](n4ccc(=O)[nH]c4=O)[C@H](O)[C@@H]3O)[C@@H](O)[C@H]2O)c(=O)[nH]1 [Up4U]
inhibition of ADP-induced aggregation [1]: do not inhibit

O=c1ccn([C@@H]2O[C@H](COP(=O)(O)OP(=O)(O)OP(=O)(O)OP(=O)(O)OC[C@H]3O[C@@H](n4cnc5c(=O)[nH]cnc54)[C@H](O)[C@@H]3O)[C@@H](O)[C@H]2O)c(=O)[nH]1 [Ip4U]
inhibition of ADP-induced aggregation [1]: do not inhibit

CCNC(=O)Nc1ncnc2c1ncn2[C@@H]1O[C@H](COP(=O)(O)O)C2O[C@H](/C=C/c3ccccc3)OC21 (stereo in doubt) [Compound 41, Phosphoric acid mono-{6-[6-(3-ethyl-ureido)-purin-9-yl]-2-styryl-tetrahydro-furo[3,4-d][1,3]dioxol-4-ylmethyl} ester bis sodium salt]
Calcium Mobilization P2Y2 (P2Y2): NR
Calcium Mobilization P2Y6 (P2Y6): NR
half-life [2]: ~7 min
Calcium Mobilization P2Y1 (P2Y1): NR
Calcium Mobilization P2Y4 (P2Y4): NR
IC50 [3]: 13 ± 2 nM
restoration of platelet aggregation following termination of infusion ([4]; after end of IV infusion, FIG. 5A): nearly complete restoration of platelet aggregation within an hour
time at which the pharmacodynamic effect reached steady state ([4]; continuous IV infusion, FIG. 5A (0.3 mg/kg/h)): ≤ 30 min
infusion rate giving the maximal inhibitory effect on platelet aggregation ([4]; continuous intravenous infusion): 0.3 mg/kg/h
inhibition of platelet aggregation, dose dependence ([4]; continuous intravenous infusion for 90 minutes): dose-dependent inhibition
mortality resulting from systemic intravascular thromboembolism [5]: 20%
inhibition of ADP-induced platelet aggregation five minutes after administration ([6]; intravenous maximally effective concentration, 1 μM and 5 μM ADP, 5 minutes): Complete inhibition
aggregation response to ADP by 30 minutes after administration ([6]; intravenous maximally effective concentration, 1 μM and 5 μM ADP, 30 minutes): returned to values similar to those observed in control animals
inhibition of platelet aggregation, dose dependence ([6]; intravenous, blood taken five minutes after administration, 1 and 5 μM ADP): dose-dependent inhibition

O=c1ccn([C@@H]2O[C@H](COP(=O)(O)OP(=O)(O)OP(=O)(O)OC[C@@H]3O[C@@H](n4ccc(=O)[nH]c4=O)C(O)[C@@H]3O)[C@H](O)C2O)c(=O)[nH]1 (stereo partly drawn) [Up3U, P^1,P^3-Di(uridine 5′-) triphosphate]
inhibition of ADP-induced aggregation [1]: do not inhibit

Nc1ccn([C@@H]2O[C@H](COP(=O)(O)OP(=O)(O)OP(=O)(O)OP(=O)(O)OC[C@H]3O[C@@H](n4ccc(=O)[nH]c4=O)[C@H](O)[C@@H]3O)[C@@H](O)[C@H]2O)c(=O)n1 [Cp4U, P^1-(cytidine 5′-)-P^4-(uridine 5′-) tetraphosphate]
inhibition of ADP-induced aggregation [1]: do not inhibit
